Source: ChEMBL document CHEMBL1121373, “Synthesis and antifertility activity of 3,9-dihydroxy-5,6,6a alpha,6b beta,11,12,12a beta,12b alpha-octahydrodibenzo[a,g]biphenylene, a structural relative of diethylstilbestrol” (1980)

How the values were obtained:
[1] = molecular target: Estrogen receptor (Rattus norvegicus) (UniProt P06211+Q62986); experiment: Estrogenic activity in uterotrophic assay in rats on oral administration relative to diethylstilbestrol; assay type: functional, organism-based
Rattus norvegicus = species: Rattus norvegicus; experiment: Effective dose for antifertility activity in rats; assay type: functional

Potency [1]: 16%
SMILES: Oc1ccc2c(c1)CCC1C2C2CCc3cc(O)ccc3C12 (configuration not stated)
ED100 (Rattus norvegicus): 100 µg/day/kg
